In patent publication US10323016B2, “Imidazol- or 1,2,4-triazol-derivatives and their use” (UNIVERSITE DE LILLE 2 DROIT ET SANTE, priority 2014, dated 2019) one finds EC50, hTGR5 % trans and mTGR5 % trans data, which are given here for 4 substances.

The target of assay [1] is hTGR5 (Homo sapiens (Human), UniProt Q8TDU6). The assay can be described thus: TGR5/CRE Luciferase Assay (hTGR5). Format: cell-based. The note with it: for EC50: HEK 293 cells transiently co-transfected with pCMV tag4b-TGR5h and pCRE TA-Luciferase reporter, overnight incubation; for hTGR5 % trans: HEK 293 luciferase reporter, percentage of the 10 μM LCA value. As to the method: (§1) TGR5/CRE Luciferase Assay
(§2) In the following tables TGR5 activation by compounds and subsequent increase in intracellular cAMP were evaluated using a luciferase reporter gene assay. Human embryonic kidney (HEK) 293 cells were transiently co-transfected with pCMV tag4b-TGR5 h (to follow hTGR5 activation) or pCMV AC6-TGR5m (to follow mTGR5 activation) expression plasmids and the pCRE TA-Luciferase reporter plasmid using the JET PEI reagent (Polyplus transfection). Transfected cells were seeded in 96-well plates and incubated overnight with the test compounds at increasing concentrations tested in duplicate. Lithocolic acid (LCA) at 10 μM was used as a positive reference compound. The cAMP-dependent luciferase expression was followed using the BrightGlo reagent according to the manufacturer (Promega) instructions. Luminescence was read with a Mithras plate reader (Berthold). […] Concentration-response curves were fitted by a nonlinear regression analysis to a 4 parameter logistic equation.
On the technique in general: Reporter assays use an easily measured gene product as a stand-in for the process of interest.

The target in assay [2] is mTGR5 (Mus musculus (Mouse), UniProt Q80SS6). Nature of the assay: TGR5/CRE Luciferase Assay (mTGR5). It counts as cell-based. Conditions: for EC50: HEK 293 cells transiently co-transfected with pCMV AC6-TGR5m and pCRE TA-Luciferase reporter, overnight incubation; for mTGR5 % trans: HEK 293 luciferase reporter, percentage of the 10 μM LCA value. As to the method: as §1, §2
mTGR5, sequence (Q80SS6 whole entry): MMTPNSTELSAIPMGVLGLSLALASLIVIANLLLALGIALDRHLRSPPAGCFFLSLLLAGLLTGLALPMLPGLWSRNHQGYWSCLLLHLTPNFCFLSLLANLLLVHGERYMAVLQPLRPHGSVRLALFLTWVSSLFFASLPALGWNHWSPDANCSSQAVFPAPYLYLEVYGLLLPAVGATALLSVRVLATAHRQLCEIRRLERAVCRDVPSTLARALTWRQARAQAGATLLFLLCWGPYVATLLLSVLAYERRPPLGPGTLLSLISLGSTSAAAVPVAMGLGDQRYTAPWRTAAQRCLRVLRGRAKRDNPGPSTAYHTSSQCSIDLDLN

hTGR5, sequence (Q8TDU6 whole entry): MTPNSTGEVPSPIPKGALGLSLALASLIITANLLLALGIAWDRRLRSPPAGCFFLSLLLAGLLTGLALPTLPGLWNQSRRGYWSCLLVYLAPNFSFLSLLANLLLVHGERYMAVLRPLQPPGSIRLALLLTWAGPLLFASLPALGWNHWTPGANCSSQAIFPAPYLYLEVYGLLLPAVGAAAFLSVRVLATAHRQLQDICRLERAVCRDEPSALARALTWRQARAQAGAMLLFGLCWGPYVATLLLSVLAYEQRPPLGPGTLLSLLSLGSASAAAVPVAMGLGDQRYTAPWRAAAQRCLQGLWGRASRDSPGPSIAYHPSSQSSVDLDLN

For orientation: EC50 means the concentration needed to bring the measured effect to its halfway point. A lower EC50 goes with greater potency. Turning to “[2-[2,6-Difluoro-4-(2-methoxy-polyethyleneglycoxy)-benzylsulfanyl]-3-(4-fluoro-3-methoxy-phenyl)-3H-imidazol-4-yl]-(3,4-dimethoxy-phenyl)-methyl-amine [Example 23]”, in assay [1], the midpoint of the response, the EC50, lay at 330 nM and the hTGR5 % trans is 103%. In assay [2], this substance returned a concentration for a half-maximal effect (EC50) of 26 nM and a mTGR5 % trans of 108%.
In the same order, the values of “[2-[2,6-Difluoro-4-(2-methoxy-polyethyleneglycoxy)-benzylsulfanyl]-3-(4-fluoro-phenyl)-3H-imidazol-4-yl]-(3,4-dimethoxy-phenyl)-methyl-amine [Example 9]” are 160 nM, 85%, 18 nM and 98%.
“[2-[2,6-Difluoro-4-(2-methoxy-polyethyleneglycoxy)-benzylsulfanyl]-3-(4-fluoro-phenyl)-3H-imidazol-4-yl]-(3,4-dimethoxy-phenyl)-methyl-amine [Example 22]”: in assay [1], the response was half-maximal at 580 nM (EC50) and the hTGR5 % trans stood at 60%. Moreover, in assay [2], the EC50 worked out at 29 nM and the mTGR5 % trans came out at 85%.
In the same order, the values of “[2-[2,6-Difluoro-4-(2-methoxy-polyethyleneglycoxy)-benzylsulfanyl]-3-(4-fluorophenyl)-3H-imidazol-4-yl]-(3,4-dimethoxy-phenyl)-methyl-amine [Example 24]” are 1200 nM, 71%, 68 nM and 126%.
